Measurements taken from patent US12655116B2, “Substituted isophthalic acid diamides” (Bayer Aktiengesellschaft, priority 2020, dated 2026).

How the values were obtained:
ALOMY [1] = assay: Pre-emergence herbicidal action against ALOMY; type: in vivo, Alopecurus myosuroides; settings: Alopecurus myosuroides, 504 h, pre-emergence; for pest or weed control at 80 g/ha: scored visually after 3 weeks vs untreated controls (100% = plants have died, 0% = like control plants); for pest or weed control at 20 g/ha: scored visually after 3 weeks, 100% = plants have died, 0% = like control plants
In short: (§1)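 Greenhouse pots of sandy loam held seeds covered with soil, onto which the compound was applied before emergence. An aqueous suspension or emulsion of WP or EC was used at 600 to 800 l/ha with 0.2% wetting agent. Percent damage was judged visually at 3 weeks.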

MATIN [2] = assay: Pre-emergence herbicidal action against MATIN; type: in vivo, Matricaria inodora; settings: for pest or weed control at 20 g/ha / pest or weed control at 80 g/ha: Tripleurospermum inodorum, 504 h
In short: as §1

VIOTR [3] = assay: Pre-emergence herbicidal action against VIOTR; type: in vivo, Viola tricolor; settings: dosage 80 g/ha; for pest or weed control at 80 g/ha: Viola tricolor, 504 h
In short: as §1

PHBPU [4] = assay: Pre-emergence herbicidal action against PHBPU; type: in vivo, Pharbitis purpurea; settings: dosage 80 g/ha; for pest or weed control at 80 g/ha: Ipomoea purpurea, 504 h
In short: as §1

VERPE = assay: Pre-emergence herbicidal action against VERPE; type: in vivo, Veronica persica; settings: dosage 80 g/ha; for pest or weed control at 80 g/ha: Veronica persica, 504 h
In short: as §1

ABUTH [5] = assay: Pre-emergence herbicidal action against ABUTH; type: in vivo, Abutilon theophrasti
In short: as §1

ECHCG [6] = assay: Pre-emergence herbicidal action against ECHCG; type: in vivo, Echinochloa crus-galli
In short: as §1

POLCO = assay: Pre-emergence herbicidal action against POLCO; type: in vivo, Polygonum convolvulus; settings: dosage 80 g/ha; for pest or weed control at 80 g/ha: Fallopia convolvulus, 504 h
In short: as §1

AMARE [7] = assay: Post-emergence herbicidal action against AMARE; type: in vivo, Amaranthus retroflexus; settings: 20 g/ha, visual assessment about 3 weeks after treatment, 100% = plants have died, 0% = like control plants; for pest or weed control at 20 g/ha: Amaranthus retroflexus, 504 h
In short: (§2)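 Foliar application at one-leaf stage of formulated test compounds, aqueous spray at 600–800 l/ha with 0.2% wetting agent. Greenhouse, optimal conditions, ~3 weeks; damage scored visually in % relative to untreated plants.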

ALOMY [8] = assay: Post-emergence herbicidal action against ALOMY; type: in vivo, Alopecurus myosuroides; settings: Alopecurus myosuroides, 504 h, visual assessment about 3 weeks after treatment vs untreated controls
In short: as §2

VIOTR [9] = assay: Post-emergence herbicidal action against VIOTR; type: in vivo, Viola tricolor; settings: Viola tricolor, 504 h, 20 g/ha
In short: as §2

AVEFA = assay: Pre-emergence herbicidal action against AVEFA; type: in vivo, Avena fatua; settings: Avena fatua, 504 h, pre-emergence
In short: as §1

AMARE [10] = assay: Pre-emergence herbicidal action against AMARE; type: in vivo, Amaranthus retroflexus; settings: for pest or weed control at 20 g/ha / pest or weed control at 80 g/ha: Amaranthus retroflexus, 504 h
In short: as §1

SETVI [11] = assay: Post-emergence herbicidal action against SETVI; type: in vivo, Setaria viridis; settings: Setaria viridis, 504 h
In short: as §2

PHBPU [12] = assay: Post-emergence herbicidal action against PHBPU; type: in vivo, Pharbitis purpurea; settings: Ipomoea purpurea, 504 h, dosage 20 g/ha
In short: as §2

ABUTH [13] = assay: Post-emergence herbicidal action against ABUTH; type: in vivo, Abutilon theophrasti; settings: Abutilon theophrasti, 504 h, visual assessment about 3 weeks after treatment vs untreated controls; for pest or weed control at 20 g/ha: dosage 20 g/ha
In short: as §2

SETVI [14] = assay: Pre-emergence herbicidal action against SETVI; type: in vivo, Setaria viridis; settings: dosage 80 g/ha; for pest or weed control at 80 g/ha: Setaria viridis, 504 h
In short: as §1

ECHCG [15] = assay: Post-emergence herbicidal action against ECHCG; type: in vivo, Echinochloa crus-galli
In short: as §2

DIGSA = assay: Pre-emergence herbicidal action against DIGSA; type: in vivo, Digitaria sanguinalis; settings: dosage 80 g/ha
In short: as §1

MATIN [16] = assay: Post-emergence herbicidal action against MATIN; type: in vivo, Matricaria inodora; settings: dosage 20 g/ha
In short: as §2

[17] = Abutilon theophrasti, 504 h, 80 g/ha, scored visually after 3 weeks vs untreated controls (100% = plants have died, 0% = like control plants)
[18] = Echinochloa crus-galli, 504 h, 80 g/ha
[19] = 20 g/ha, scored visually after 3 weeks vs untreated controls, 100% = plants have died, 0% = like control plants
[20] = 80 g/ha, scored visually after 3 weeks vs untreated controls, 100% = plants have died, 0% = like control plants
[21] = Echinochloa crus-galli, 504 h, dosage 20 g/ha
[22] = 80 g/ha, scored visually after 3 weeks vs untreated controls (100% = plants have died, 0% = like control plants)

| Structure (SMILES) | pest or weed control at 80 g/ha (ALOMY [1]) [%] | pest or weed control at 20 g/ha (ALOMY [1]) [%] | pest or weed control at 20 g/ha (MATIN [2]; dosage 20 g/ha) [%] | pest or weed control at 80 g/ha (MATIN [2]; dosage 80 g/ha) [%] | pest or weed control at 80 g/ha (VIOTR [3]) [%] | pest or weed control at 80 g/ha (PHBPU [4]) [%] | pest or weed control at 80 g/ha (VERPE) [%] | pest or weed control at 80 g/ha (ABUTH [5]; [17]) [%] | pest or weed control at 80 g/ha (ECHCG [6]; [18]) [%] | pest or weed control at 80 g/ha (POLCO) [%] | pest or weed control at 20 g/ha (AMARE [7]) [%] | pest or weed control at 80 g/ha (AVEFA) [%] | pest or weed control at 20 g/ha (AMARE [10]; [19]) [%] | pest or weed control at 80 g/ha (AMARE [10]; [20]) [%] | pest or weed control at 20 g/ha (ABUTH [13]) [%] | pest or weed control at 80 g/ha (SETVI [14]) [%] | pest or weed control at 20 g/ha (ECHCG [15]; [21]) [%] | further results |
| --- | --- | --- | --- | --- | --- | --- | --- | --- | --- | --- | --- | --- | --- | --- | --- | --- | --- | --- |
| CCNC(=O)c1c(Cl)ccc(C(=O)Nc2nnnn2CC)c1Br [Example 2-348] | 100 | 90 | 90 | 90 | 100 | 80 | 80 | 100 | 100 | 90 | 100 | 100 | 100 | 100 | 90 | 100 | 80 | pest or weed control at 5 g/ha (ALOMY [8]; dosage 5 g/ha): 80%; pest or weed control at 20 g/ha (ALOMY [8]; dosage 20 g/ha): 90%; pest or weed control at 20 g/ha (VIOTR [9]): 80%; pest or weed control at 5 g/ha (SETVI [11]; dosage 5 g/ha): 80%; pest or weed control at 20 g/ha (SETVI [11]; dosage 20 g/ha): 100%; pest or weed control at 20 g/ha (PHBPU [12]): 80%; pest or weed control at 5 g/ha (ABUTH [13]; dosage 5 g/ha): 90% |
| Cn1nnnc1NC(=O)c1ccc(C(F)(F)F)c(C(=O)NCC(F)(F)F)c1Br [Example 1-211] | 100 | 90 | 90 | 100 | 100 | 80 | 100 | 100 | 100 | 90 | 90 | 90 | 100 | 100 | 80 | 100 | 90 | pest or weed control at 20 g/ha (ABUTH [5]; Abutilon theophrasti, 504 h, dosage 20 g/ha, scored visually after 3 weeks vs untreated controls, 100% = plants have died, 0% = like control plants, read-out: Pre-emergence action against ABUTH (herbicidal activity in percent)): 100%; pest or weed control at 20 g/ha (ECHCG [6]; Echinochloa crus-galli, 504 h, 20 g/ha): 90%; pest or weed control at 20 g/ha (AVEFA; 20 g/ha, scored visually after 3 weeks, 100% = plants have died, 0% = like control plants): 80%; pest or weed control at 5 g/ha (ECHCG [15]; Echinochloa crus-galli, 504 h, dosage 5 g/ha): 80% |
| CCn1nnnc1NC(=O)c1ccc(C(F)F)c(C(=O)NC2CCC2)c1Cl [Example 2-164] |  |  |  |  |  |  |  |  |  |  |  |  |  |  |  |  |  | Pre-emergence action against MATIN in % (MATIN [2]; dosage 20 g/ha): 100%; Pre-emergence action against MATIN in % (MATIN [2]; dosage 80 g/ha): 100%; Pre-emergence action against DIGSA in % (DIGSA): 100%; Pre-emergence action against VIOTR in % (VIOTR [3]): 100%; Pre-emergence action against PHBPU in % (PHBPU [4]): 100%; Pre-emergence action against VERPE in % (VERPE): 100%; Pre-emergence action against ABUTH (herbicidal activity) (ABUTH [5]; [22]): 100%; Pre-emergence action against ABUTH (herbicidal activity in percent) (ABUTH [5]; dosage 20 g/ha, scored visually after 3 weeks vs untreated controls, 100% = plants have died, 0% = like control plants): 90%; Pre-emergence action against ECHCG in % (ECHCG [6]; 80 g/ha): 80%; Pre-emergence action against POLCO in % (POLCO): 90%; Post-emergence action at 20 g/ha against AMARE in % (AMARE [7]): 90%; Post-emergence action against MATIN in % (MATIN [16]): 80%; Pre-emergence action against AMARE in % (AMARE [10]; [19]): 100%; Pre-emergence action against AMARE in % (AMARE [10]; [22]): 100%; Pre-emergence action against SETVI in % (SETVI [14]): 80%; Post-emergence action against ECHCG in % (ECHCG [15]; dosage 20 g/ha): 80% |
